Laboratory results reported in US20100028447A1, “Intranasal, Buccal, And Sublingual Administration Of Metanicotine Analogs” (TARGACEPT, INC., priority 2007, published 2010).
Values joined by “and” are separate entries in the source; they are usually repeats but may differ in a detail not shown here. Equal entries are not always repeated. Where two headings read alike, the source gives them in different places.

Key:
[1] = Permeation across cultured human respiratory epithelium (EpiAir tissue), apical-to-basolateral Papp; conditions: human, pH 7.4, Papp
From the text: An in vitro model of MatTek EpiAir® tissue was used for the permeability assessment of the test articles and control compounds. The EpiAir® culture consists of cells that have been cultured to form a pseudo-stratified, highly differentiated model closely resembling the epithelial tissue of the human respiratory tract. The histological cross-sections of the cultured tissue reveal a pseudo-stratified mucociliary phenotype.
EpiAir® tissues plated in 12 well plates were pre-equilibrated for the assay by culturing them for 24 hours at 37° C. with 5% CO2 in a humidified incubator. On the day of the assay, the cultures were washed two times with Dulbeccos' Phosphate Buffered Saline (DPBS buffer) at pH 7.4, and then dosed with donor and receiver buffer applied to the apical and basolateral surfaces of the culture, respectively. The receiver buffer consisted of DPBS, at pH 7.4. The donor solution consisted of DPBS buffer containing the appropriate compounds as specified in Table 1. All treatments were performed in triplicate. The receiver buffer was sampled at 15, 30, 60, and 120 minutes, and the donor buffer was sampled at 120 minutes.
The Lucifer Yellow concentration in the receiver samples was measured using a FluoStar fluorescence plate reader (BMG Laboratories, Durham, N.C.).
The apparent permeability coefficient, Papp, was calculated as follows: […]
where: dCr/dt is the slope of the cumulative concentration in the receiver compartment versus time; Vr is the volume of the receiver compartment; A is the surface area of epithelium available for permeation; and Co is the dosing solution concentration.

[2] = Brain-to-plasma ratio after oral gavage or intranasal administration (Example 4); assay type: in vivo, Sprague-Dawley rats
Protocol: Eight treatment groups of nine rats each were used (see Study Design, Table 6). […] The animals were housed up to three per cage and identified by cage labels. A single room was used for this study. […] Food was withheld from the animals for a minimum of 12 hours before the study and during the study, and was returned at 4 hours post-dose. Water was supplied ad libitum during the study.
All dosing solutions were prepared in isotonic PBS (phosphate buffered saline) buffer at pH 7.4. […] For intranasal dosing, the animals were anesthetized with CO2 prior to dosing, and the solution was administered in a droplet from a pipette.
For each treatment group, brain and plasma samples were collected at 10, 30 and 60 minutes post-dose. Blood samples were placed in heparinized tubles and spun at 13,000 rpm for 5 minutes. The plasma was placed in polyethylene tubes and frozen (−60 to −80° C.). Brain samples were also placed in chilled tubes and frozen (−60 to −80° C.). Samples remained chilled during subsequent processing.
Brain samples were thawed and weighed. […] After homogenation, the volume of each sample was recorded and the samples were frozen at −80° C. until analysis.
Plastic tubes were used for all steps. Standards were prepared at concentrations of 1000, 500, 250, 100, 50, 10, 5 and 1 ng/mL by serial dilution. Quality control samples were also prepared at 500, 100, and 5 ng/mL. […] Brain standards and quality control samples were treated identically to the test compound samples.
(§1) Brain samples (200 μL) were loaded onto a 96 well plate and then transferred to 400 μL of pure acetonitrile (containing 10 ng/mL nicotine as an internal standard) in a Sirocco Protein Precipitation Plate (Waters Corporation). The resulting suspensions were mixed and then filtered into a clean 96-well collection plate using a vacuum. A 200 μL aliquot of the resulting filtrate was then transferred to plastic HPLC vials for analysis.
as §1, with “Plasma” for “Brain”, “(50” for “(200”, “150” for “400”, “80” for “200”
(§2) Brain samples (200 μL) were loaded onto a 96 well plate and then transferred to 400 μL of acetonitrile containing internal standard (100 ng/mL Pindolol) in a Sirocco Protein Precipitation Plate (Waters Corporation). The resulting suspensions were mixed and then filtered into a clean 96-well collection plate using a vacuum. The resulting filtrates were then evaporated to dryness under nitrogen at 37° C. The resulting residues were reconstituted with 200 μL of water. The samples were then mixed, centrifuged, and transferred (100 μL) to plastic HPLC vials for analysis.
as §2, with “(50” for “(200”, “150” for “400”, “100” for “200”

[3] = Sprague-Dawley, rat, in vivo, 10 mg/kg, Brain-to-Plasma Ratio
[4] = Sprague-Dawley, rat, in vivo, 10 mg/kg, Mean Ratio (brain-to-plasma)
[5] = Sprague-Dawley, rat, in vivo, intranasal, 1 mg/kg, Average brain-to-plasma ratio
[6] = Sprague-Dawley, rat, in vivo, po, 5 mg/kg, Average brain-to-plasma ratio

## CNCC/C=C/c1cccnc1 [Compound B, N-methyl-(4-pyridin-3-yl-but-3-enyl)-amine]
[1]; Treatment 1: Compound B assayed with controls, Average ± STD
  Papp at 120 min: 18.3 ± 0.28 ×10⁻⁶ cm/s
[1]; Treatment 1: Compound B assayed with controls, Rep 1
  Papp at 120 min: 18.5 ×10⁻⁶ cm/s
[1]; Treatment 1: Compound B assayed with controls, Rep 2
  Papp at 120 min: 18 ×10⁻⁶ cm/s
[1]; Treatment 1: Compound B assayed with controls, Rep 3
  Papp at 120 min: 18.4 ×10⁻⁶ cm/s
[1]; Treatment 2: Compound B assayed with controls + MAO inhibitor Pargyline, Average ± STD
  Papp at 120 min: 25.4 ± 0.41 ×10⁻⁶ cm/s
[1]; Treatment 2: Compound B assayed with controls + MAO inhibitor Pargyline, Rep 1
  Papp at 120 min: 25.1 ×10⁻⁶ cm/s
[1]; Treatment 2: Compound B assayed with controls + MAO inhibitor Pargyline, Rep 2
  Papp at 120 min: 25.9 ×10⁻⁶ cm/s
[1]; Treatment 2: Compound B assayed with controls + MAO inhibitor Pargyline, Rep 3
  Papp at 120 min: 25.2 ×10⁻⁶ cm/s
[2]; Sprague-Dawley, rat, in vivo, inhaled or intranasal, 1 mg/kg, intranasal 1 mg/kg with pargyline, 10 minute time point, two animals, read-out: Brain-to-plasma ratio (average value)
  Kp at […]: 0.89
[2]; Sprague-Dawley, rat, in vivo, inhaled or intranasal, 1 mg/kg, intranasal 1 mg/kg with pargyline, 30 minute time point, one animal, read-out: Brain-to-plasma ratio
  Kp at 0.5 h: 0.21
[2]; Sprague-Dawley, rat, in vivo, inhaled or intranasal, 1 mg/kg, intranasal 1 mg/kg without pargyline, 10 minute time point, two animals, read-out: Brain-to-plasma ratio (average value)
  Kp at […]: 1.09
[2]; Sprague-Dawley, rat, in vivo, po, 10 mg/kg, oral gavage administration, two animals, both at the minute time point
  Kp: 0.22

## CN[C@@H](C)C/C=C/c1cncc(OC)c1 [Compound A, (2S)-(4E)-N-methyl-5-(3-(5-methoxypyridin)yl)-4-penten-2-amine]
[1]
  Papp at 120 min: 25.1 ×10⁻⁶ cm/s
[2]; Group 1, OG, 10 mg/kg, 30 min, 10 mg/kg
  Plasma Conc.: 216 ng/mL and 278 ng/mL
[2]; Group 1, OG, 10 mg/kg, 60 min, 10 mg/kg
  Plasma Conc.: 239 ng/mL and 234 ng/mL
[2]; Group 3, OG, 10 mg/kg, 10 min, 10 mg/kg
  Plasma Conc.: 327 ng/mL and 249 ng/mL
[2]; [3]
  Kp at 0.5 h: 0.044
  Kp at 1 h: 0.038
[2]; Sprague-Dawley, rat, in vivo, 10 mg/kg, Group 1, OG, 10 mg/kg, 30 min, read-out: Brain Conc.
  concentration at 30 min: 2.04 ng/mL and 9.6 ng/g
[2]; Sprague-Dawley, rat, in vivo, 10 mg/kg, Group 1, OG, 10 mg/kg, 30 min, read-out: Plasma Conc.
  concentration at 30 min: 174 ng/mL
[2]; Sprague-Dawley, rat, in vivo, 10 mg/kg, Group 1, OG, 10 mg/kg, 60 min, read-out: Brain Conc.
  concentration at 60 min: 1.26 ng/mL and 6.08 ng/g
[2]; Sprague-Dawley, rat, in vivo, 10 mg/kg, Group 1, OG, 10 mg/kg, 60 min, read-out: Plasma Conc.
  concentration at 60 min: 158 ng/mL
[2]; Sprague-Dawley, rat, in vivo, 10 mg/kg, Group 2, OG, 10 mg/kg, 60 min, read-out: Brain Conc.
  concentration at 60 min: 2.81 ng/mL and 13.9 ng/g
[2]; Sprague-Dawley, rat, in vivo, 10 mg/kg, Group 3, OG, 10 mg/kg, 10 min, read-out: Plasma Conc.
  concentration at 10 min: 313 ng/mL
[2]; [4]
  Kp at 0.5 h: 0.042
  Kp at 1 h: 0.032
  Kp at […]: 0.039
[2]; Sprague-Dawley, rat, in vivo, intranasal, 0.1 mg/kg, Brain-to-plasma ratio
  Kp at 0.5 h: 5.52
[2]; Sprague-Dawley, rat, in vivo, intranasal, 0.1 mg/kg, Brain-to-plasma ratio (average value)
  Kp at […]: 2.21
[2]; [5]
  Kp at 0.5 h: 4.28
  Kp at 1 h: 6.4
  Kp at […]: 1.58
[2]; [6]
  Kp at 0.5 h: 2.37
  Kp at 1 h: 3.38
  Kp at […]: 1.75
[2]; by both intranasal and oral administration
  Exposures in plasma and brain, Compound A compared with Compound B: much greater
[2]; rat, in vivo
  Brain-to-plasma ratios, intranasal as opposed to oral gavage administration: generally greater
